For series [1], the system named is bicuculline-induced tonic extension in mice. Briefly: protection against bicuculline-induced tonic extension in mice. It is filed as in vivo. The settings on record: Mus musculus, iv, 3 hours prior to bicuculline 0.7 mg/kg i.v., read-out: Anticonvulsive effect (versus Bicuculline) (% Protection). The procedure:
(§1) In the second study the anti-convulsant effect of the compounds of the present invention was examined in two seizure models; bicuculline-induced tonic extension in mice and 3-mercaptopropionic acid (3-MPA)-induced tonic extension in mice.
(§2) In the bicuculline study, the ability of the compounds of the present invention to protect against tonic extension (involving rigidity) was evaluated as follows. Each test compound was administered to a group of ten mice at a dose of 10 mg/kg, 3 hours prior to the i.v. administration of bicuculline (0.7 mg/kg). Anticonvulsant activity in this test is expressed as percentage of animals tested. The results are given in Table II, column 6, and indicate that several compounds display significant anticonvulsive activity in this test. The anticonvulsant effect of the compounds has also been tested with respect to the tonic extension induced by 3-mercaptopropionic acid (120 mg/kg subcutaneously) in mice.

The next series deals with T1, α2 -adrenergic receptors (Cavia porcellus, UniProt Q60474).
T1 construct: from tissue; host or cells: isolated guinea pig ileum
T1 sequence (Q60474 1-464): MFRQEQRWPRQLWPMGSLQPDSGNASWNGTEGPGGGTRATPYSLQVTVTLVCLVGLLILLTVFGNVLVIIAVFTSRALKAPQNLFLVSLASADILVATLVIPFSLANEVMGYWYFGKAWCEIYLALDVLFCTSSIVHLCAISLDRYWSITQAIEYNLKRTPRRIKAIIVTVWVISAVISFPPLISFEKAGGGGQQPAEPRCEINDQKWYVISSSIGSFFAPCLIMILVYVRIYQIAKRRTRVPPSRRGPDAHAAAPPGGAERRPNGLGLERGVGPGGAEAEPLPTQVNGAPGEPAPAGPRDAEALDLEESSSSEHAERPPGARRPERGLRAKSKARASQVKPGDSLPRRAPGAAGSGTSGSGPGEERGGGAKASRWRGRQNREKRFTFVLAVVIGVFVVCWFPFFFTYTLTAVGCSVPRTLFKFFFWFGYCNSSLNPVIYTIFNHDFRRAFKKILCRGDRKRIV
Briefly: α2 antagonist and α2 agonist activity in isolated guinea pig ileum (clonidine). The settings on record: for EC50: 50% of maximum inhibition obtained with clonidine, read-out: α2 Agonist Activity (-log ED50) (converted); for Kb: versus clonidine, read-out: α2 Antagonist Activity (pA2) (converted). The procedure:
The α2 antagonist and α2 agonist activity of the compounds according to the invention was determined upon isolated organs according to a model described by G. M. Drews, Br. J. Pharmaco., 64, 293-300 (1978).
This model is based upon the principle that the stimulation of the cholinergic nervous transmissions of the guinea pig ileum causes the liberation of acetyl choline, which in turn causes contractions of the ileum.
The stimulation of the α2 -adrenergic receptors inhibits the activity of the cholinergic nerve and consequently reduces all response resulting from a timulation of the latter. Thus the contractions of the ileum induced by electric stimulation of the tissue are inhibited by clonidine, an α2 agonist, in proportion to the dose. This inhibition is specifically displaced by the α2 antagonists and not by the α1 antagonists.
The method utilized can be summarized as follows: three dose-response curves to clonidine are established at an interval of 60 minutes. Two concentrations of the product to be tested are added successively 10 minutes before the realization of the second and third clonidine curves. Next, after washing, a dose-response curve is established with the product to be tested.
The dose-response curves are calculated as a percentage of the maximum inhibition obtained for the first curve. In this system the products having an α2 antagonist activity displace the dose-response curve to clonidine. The α2 antagonist activity, expressed in pA2 value, shown in column 4, is calculated according to J. M. Van Rossum, Arch. Int. Pharmacodyn., 143, 299-300 (1963).
A reduction of the contractions induced by the tested product alone indicates an α2 agonist effect. This activity is expressed in--log ED50 (the--logarithm of the concentration of the product giving 50% of the maximum inhibition obtained with clonidine).
The higher the pA2 value, the higher the α2 antagonist activity; the higher the--log ED50 value (i.e., the pA2 agonist activity), the higher the α2 agonist activity.

For series [2], the system named is 3-mercaptopropionic acid (3-MPA)-induced tonic extension in mice. Briefly: protection against 3-mercaptopropionic acid (3-MPA)-induced tonic extension in mice. It is filed as in vivo. The settings on record: 100 mg/kg orally, 30 minutes prior to 3-MPA (120 mg/kg s.c.). The procedure: as §1, §2
In the 3-MPA assay, the compounds of the present invention are administered orally at a dose of 100 mg/kg 30 minutes prior to administration of 3-MPA. Each compound was tested on a group of 5 mice; if more than 1 mouse was protected, a second group of 5 mice was tested.

The nature of series [3]: acute toxicity after oral administration to mice (LD50). The settings on record: mouse, in vivo, 15 days mortality. In short, it runs like this:
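Compounds suspended in 1% tragacanth gum mucilage given by intragastric probe to groups of three fasted male mice at 3,000 to 3 mg/kg or less. Mortality recorded over 15 days; LD50 (mg/kg) calculated by the Litchfield–Wilcoxon method. Behaviour observed up to 5–6 h and at 24 h.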

Series [4] relates to clonidine-induced depression of locomotor activity and rearing activity. In words: clonidine-induced depression of locomotor activity, open field test in mice. It is filed as in vivo. The settings on record: for minimal effective dose: Mus musculus, 2 hours prior to clonidine 0.3 mg/kg p.o. The source says: The third in vivo study evaluation activity of the compounds of the invention on clonidine induced depression of locomotor activity. The previously-discussed study involving clonidine related to its α2 agonist effects on the brain's regulation of the cardiovascular system. The present study involved clonidine α2 agonist effects on central control of locomotor activity. Clonidine inhibits locomotor activity and rearing activity in the mouse. In this "open field" test, mice are pretreated with the compounds of the present invention at doses of 1 to 10 mg/kg p.o. […] Each compound was evaluated for its ability to antagonize the effect of clonidine. […] Compound No. 1 antagonizes clonidine-induced depression of locomotor activity and rearing activity from 1 mg/kg p.o. and from 3 mg/kg p.o., respectively. The effects of chronic administration of compound No. 1 were also evaluated in this test. In this study, groups of 5-6 mice were treated with compound No. 1 (3 mg/kg p.o.) either twice daily for 14 days (chronic) or with one single dose (acute).

Broadly, the LD50 is the dose expected to kill half of the subjects tested. The low end stands for a more toxic substance, the high end for a less toxic substance.

Molecules are shown by their SMILES. “Also recorded” adds a separate entry of the source. Where two headings read alike, the source gives them in different places.

Take `c1ccc(C(Cc2c[nH]cn2)c2ccccc2)cc1` [Compound 1, 4(5)-(2,2-diphenylethyl)-imidazole]: the responders at 10 mg/kg in series [1] came to 0%. Further, the EC50 on α2 -adrenergic receptors is 3160 nM. Further, on α2 -adrenergic receptors, the Kb is 5.01 nM. For the same compound, in series [2], the “anticonvulsant effect versus 3-MPA (in words)” value is “potent anticonvulsant effect”. Also, in series [3], the LD50 at 360 h came to 155 mg/kg. For the same compound, the “activity in the open field test after chronic administration (in words)” value in series [4] (3 mg/kg p.o. twice daily 14 days, clonidine 0.15 mg/kg i.p.) is “at the same level as after acute administration; also recorded: disappeared 24 hours after withdrawal of the drug”. Further, the minimal effective dose in series [4] (mice, read-out: active dose antagonizing clonidine-induced depression of locomotor activity) is at least 1 mg/kg; in series [4] (mice, read-out: active dose antagonizing clonidine-induced depression of rearing activity), at least 3 mg/kg. Moreover, the “% Inhibition of the Effect of Clonidine on Locomotor Activity in Mice” value is reported as 52% in series [4] (acute, 3 mg/kg p.o., 1 h after last administration, clonidine 0.15 mg/kg i.p.); 59% in series [4] (chronic, 3 mg/kg p.o. twice daily 14 days, 1 h after last administration, clonidine 0.15 mg/kg i.p.); 3% in series [4] (chronic, 3 mg/kg p.o. twice daily 14 days, 24 h after last administration, clonidine 0.15 mg/kg i.p.); 5% in series [4] (chronic, 3 mg/kg p.o. twice daily 14 days, 72 h after last administration, clonidine 0.15 mg/kg i.p.). The “accumulation of the compound after chronic administration (in words)” value in series [4] (inferred from open field activity after withdrawal, 14 days twice daily) is given as “Accumulation of the compound does not appear to occur”. In addition, the “activity in the open field test (in words)” value in series [4] (mice, 1 to 10 mg/kg p.o., clonidine 0.3 mg/kg p.o.) was “particularly active”.

In the case of `CC(c1c[nH]cn1)C(c1ccccc1)c1ccccc1` (stereo not shown) [Compound 4], in series [1], the responders at 10 mg/kg amounted to 40%. Moreover, on α2 -adrenergic receptors, the EC50 is above 3160 nM and the Kb was 316 nM. In addition, the median lethal dose (LD50) at 360 h in series [3] is above 300 mg/kg.

As for `Cc1cccc(C(Cc2c[nH]cn2)c2ccccc2)c1` (stereo not shown) [Compound 9, 4(5)-{[2-(3-methylphenyl)-2-phenyl]ethyl}imidazole], the responders at 10 mg/kg in series [1] stood at 20%. In addition, on α2 -adrenergic receptors, the EC50 is 2510 nM and the Kb is 15.8 nM. Further, the LD50 at 360 h in series [3] came out at 155 mg/kg.

On to `Cc1ccccc1C(Cc1c[nH]cn1)c1ccccc1` (stereo not shown) [Compound 12], for which, in series [1], the responders at 10 mg/kg was 50%. At α2 -adrenergic receptors, the EC50 was 3980 nM and the Kb was 12.6 nM. The compound also yielded an LD50 at 360 h in series [3] of 155 mg/kg.

As to `Clc1ccccc1C(Cc1c[nH]cn1)c1ccccc1` (stereo not shown) [Compound 13, 4(5)-{[2-(2-chlorophenyl)-2-phenyl]ethyl}imidazole], the responders at 10 mg/kg in series [1] amounted to 20%. In addition, at α2 -adrenergic receptors, the EC50 was 3160 nM and the Kb was 10 nM. For the same compound, the “anticonvulsant effect versus 3-MPA (in words)” value in series [2] is reported as “potent anticonvulsant effect”. Besides, the 50% lethal dose (LD50) at 360 h in series [3] is 172 mg/kg.

For `Fc1ccc(C(Cc2c[nH]cn2)c2ccccc2)cc1` (stereo not shown) [Compound 14, 4(5)-{[2-(4-fluorophenyl)-2-phenyl]ethyl}imidazole], in series [1], the responders at 10 mg/kg came out at 0%. On α2 -adrenergic receptors, the EC50 was 6310 nM and the Kb was 15.8 nM. Further, the LD50 at 360 h in series [3] came to 155 mg/kg.

Consider `Fc1ccc(C(Cc2c[nH]cn2)c2ccccc2F)cc1` (stereo not shown) [Compound 15, 4(5)-{[2-(2-fluorophenyl)-2-(4'-fluorophenyl)]ethyl}imidazole], for which the responders at 10 mg/kg in series [1] is 0%. Moreover, at α2 -adrenergic receptors, the EC50 is 5010 nM and the Kb was 15.8 nM. In addition, in series [3], the median lethal dose (LD50) at 360 h was 155 mg/kg.

For `Cc1ccc(C)c(C(Cc2c[nH]cn2)c2ccccc2)c1` (stereo not shown) [Compound 16], in series [1], the responders at 10 mg/kg was 20%. In addition, on α2 -adrenergic receptors, the EC50 was 2000 nM and the Kb was 100 nM. The “anticonvulsant effect versus 3-MPA (in words)” value in series [2] is on record as “potent anticonvulsant effect”. The 50% lethal dose (LD50) at 360 h in series [3] is above 300 mg/kg.

Consider `COc1ccc(C(Cc2c[nH]cn2)c2ccccc2)cc1` (stereo not shown) [Compound 17, 4(5)-{[2-(4-methoxyphenyl)-2-phenyl]ethyl}imidazole], for which the responders at 10 mg/kg in series [1] amounted to 10%. Moreover, at α2 -adrenergic receptors, the EC50 was 10000 nM and the Kb is 12.6 nM. The LD50 at 360 h in series [3] is 350 mg/kg.

Consider `Cc1ccc(C(Cc2c[nH]cn2)c2ccccc2)cc1` (stereo not shown) [Compound 21], for which the responders at 10 mg/kg in series [1] turned out to be 50%. At α2 -adrenergic receptors, the EC50 was 5010 nM and the Kb is 25.1 nM. The LD50 at 360 h in series [3] turned out to be 350 mg/kg.

Values taken from patent US4738979A, “α2 -blocking derivatives of imidazole” (G. D. Searle & Co., priority 1985, dated 1988).
